Laboratory results taken from patent US7335654B2, “Phosphodiesterase 4 inhibitors” (Memory Pharmaceuticals Corporation, priority 2002, dated 2008).

Key:
[1] = tested on: rat (Male Spraque-Dawley (Harlan)); assay: Passive avoidance in rats, in vivo test for learning and memory; conditions: retention test 24 hours after electric shock; MK-801 0.1 mg/kg pretreatment compared to the vehicle (p<0.001)
Description: The test was performed as previously described (Zhang, H.-T., Crissman, A. M., Dorairaj, N. R., Chandler, L. J., and O'Donnell, J. M., Neuropsychopharmacology, 2000, 23, 198-204.). The apparatus (Model E10-16SC, Coulbourn Instruments, Allentown, Pa.) consisted of a two-compartment chamber with an illuminated compartment connected to a darkened compartment by a guillotine door. The floor of the darkened compartment consisted of stainless steel rods through which an electric foot-shock could be delivered from a constant current source. All experimental groups were first habituated to the apparatus the day before the start of the experiment. During the training, the rat (Male Spraque-Dawley (Harlan) weighing 250 to 350 g) was placed in the illuminated compartment facing away from the closed guillotine door for 1 minute before the door was raised. The latency for entering the darkened compartment was recorded. After the rat entered the darkened compartment, the door was closed and a 0.5 mA electric shock was administered for 3 seconds. […] The latency for entering the darkened compartment was recorded for up to 180 seconds, at which time the trial was terminated.
(§1) All data were analyzed by analyses of variance (ANOVA); individual comparisons were made using Kewman-Keuls tests. […]

[2] = tested on: rats (male Spraque-Dawley (Harlan)); assay: Radial arm maze task in rats, in vivo test for learning and memory; design: species or system rat; conditions: MK-801 0.1 mg/kg, i.p., compared to control (p<0.01)
Description: The test was performed as previously described (Zhang, H.-T., Crissman, A. M., Dorairaj, N. R., Chandler, L. J., and O'Donnell, J. M., Neuropsychopharmacology, 2000, 23, 198-204.). Five days after initial housing, rats (male Spraque-Dawley (Harlan) weighing 250 to 350 g) were placed in the eight-arm radial maze (each arm was 60×10×12 cm high; the maze was elevated 70 cm above the floor) for acclimation for two days. Rats were then placed individually in the center of the maze for 5 minutes with food pellets placed close to the food wells, and then, the next day, in the wells at the end of the arms; 2 sessions a day were conducted. Next, four randomly selected arms were then baited with one pellet of food each. The rat was restricted to the center platform (26 cm in diameter) for 15 seconds and then allowed to move freely throughout the maze until it collected all pellets of food or 10 minutes passed, whichever came first. Four parameters were recorded: 1) working memory errors, i.e., entries into baited arms that had already been visited during the same trial; 2) reference memory errors, i.e., entries into unbaited arms; 3) total arm entries; and 4) the test duration (seconds), i.e., the time spent in the collection of all the pellets in the maze. […]
as §1

With `C[C@]12N[C@H](Cc3ccccc31)c1ccccc12` [MK-801] the “latency for entering the darkened compartment” value [1] was “markedly reduced”, the “frequency of reference memory errors” value [2] was “increased” and the “frequency of working memory errors” value [2] was “increased”.
